Test results from patent US20110105472A1, “Diaminopyrimidines as crop protection agents” (Bayer CropScience AG, priority 2008, published 2011).

Test: logP by HPLC on reversed-phase columns (C 18), method [a], acidic range pH 2.3
Type: physicochemical
Conditions: pH 2.3

Row | SMILES | log p | chromatographic logP
1 | COc1cc(Nc2ncc(Cl)c(NC3CCC3)n2)cc(OC)c1.Cl [Compound 2-3] | 2.23^[a] | 
2 | CC(=O)c1cccc(Nc2ncc(Cl)c(NC3CCC3)n2)c1.Cl [Compound 2-4] | 2.04^[a] | 
3 | CC(C)Oc1ccc(Nc2ncc(Cl)c(NC3CCC3)n2)cc1.Cl [Compound 2-6] | 2.21^[a] | 
4 | Clc1ncc(Cl)c(NC2CCC2)n1 [Compound V-1, 2,5-Dichloro-N-cyclobutylpyrimidine-4-amine] |  | 2.62

Test: logP by LC-MS, method [b], acidic range pH 2.7
Type: physicochemical
Conditions: method [b], LC-MS, acidic range pH 2.7

Row | SMILES | log p
5 | CCS(=O)(=O)c1nc2ccc(Nc3ncc(Br)c(NC4CCC4)n3)cc2s1 [Compound 3] | 2.91[b]

Same assay, conditions: pH 2.7

Row | SMILES | log p
6 | C=CCNC(=O)c1ccc(Nc2ncc(C(F)(F)F)c(NC3CCC3)n2)cc1 [Compound 239] | 2.79[b]
7 | N#CCc1cc(Nc2ncc(Br)c(NC3CCC3)n2)ccc1F [Compound 219] | 2.2[b]
8 | CCN(C(C)=O)c1ccc(Nc2ncc(Br)c(NC3CCC3)n2)cc1 [Compound 93] | 1.92[b]
9 | CCN(CC)C(=O)c1cccc(Nc2ncc(Br)c(NC3CCC3)n2)c1 [Compound 252] | 2.26[b]
10 | O=C(Nc1ccccc1)c1ccc(Nc2ncc(Br)c(NC3CCC3)n2)cc1 [Compound 72] | 2.09[b]
11 | CC(=O)c1cccc(Nc2ncc(C(F)(F)F)c(NC3CCC3)n2)c1 [Compound 227] | 3.24[b]
12 | CC(C)(C)C(=O)Cc1ccc(Nc2ncc(Br)c(NC3CCC3)n2)cc1 [Compound 104] | 2.63[b]
13 | CC(=O)c1cc(Nc2ncc(Br)c(NC3CCC3)n2)ccc1Cl [Compound 150] | 2.95[b]
14 | O=S(=O)(c1ccc(Nc2ncc(Br)c(NC3CCC3)n2)cc1)C(F)(F)F [compound 193] | 4.32[b]
15 | O=c1oc2ccc(Nc3ncc(Br)c(NC4CCC4)n3)cc2s1 [compound 11] | 2.63[b]
16 | COc1cc(Nc2ncc(Br)c(NC3CCC3)n2)ccc1NS(C)(=O)=O [Compound 84] | 1.75[b]
17 | Cc1cc(O)ccc1Nc1ncc(Br)c(NC2CCC2)n1 [compound 198] | 1.47[b]
18 | CC(C)(C)c1cccc(Nc2ncc(C(F)(F)F)c(NC3CCC3)n2)c1 [Compound 259] | 4.98[b]
19 | O=C(c1ccc(Nc2ncc(Br)c(NC3CCC3)n2)cc1)N1CCOCC1 [Compound 191] | 1.75[b]
20 | CCSc1cccc(Nc2ncc(Br)c(NC3CCC3)n2)c1 [Compound 228] | 3.37[b]
21 | O=C1CCc2cc(Nc3ncc(Br)c(NC4CCC4)n3)ccc2N1 [Compound 4] | 1.49[b]
22 | COCc1cccc(Nc2ncc(Br)c(NC3CCC3)n2)c1 [Compound 39] | 2.2[b]
23 | CC(C)(C)NC(=O)c1ccc(Nc2ncc(Br)c(NC3CCC3)n2)cc1 [Compound 102] | 2.46[b]
24 | CN1CC(=O)N(c2ccc(Nc3ncc(Br)c(NC4CCC4)n3)cc2)C1=O [Compound 164] | 1.63[b]
25 | CC(=O)CCc1cccc(Nc2ncc(Br)c(NC3CCC3)n2)c1 [Compound 253] | 2.04[b]
26 | Brc1cnc(Nc2ccc(-c3cscn3)cc2)nc1NC1CCC1 [Compound 74] | 2.26[b]
27 | O=C(Nc1cccc(Nc2ncc(Br)c(NC3CCC3)n2)c1)c1ccccc1 [compound 168] | 2.46[b]
28 | O=C1N(CCCl)CCN1c1cccc(Nc2ncc(Br)c(NC3CCC3)n2)c1 [Compound 206] | 2.19[b]
29 | CCSc1cccc(Nc2ncc(Cl)c(NC3CCC3)n2)c1 [Compound 188] | 3.15[b]

Row | SMILES | log p
30 | O=C(NCC(F)(F)F)c1cccc(Nc2ncc(Br)c(NC3CCC3)n2)c1 [Compound 181] | 2.21[b]
31 | CC1(Nc2nc(Nc3ccccc3)ncc2C(F)(F)F)CCC1 [compound 232] | 3.36[b]
32 | O=S(=O)(c1cccc(Nc2ncc(Br)c(NC3CCC3)n2)c1)N1CCOCC1 [Compound 147] | 2.46[b]
33 | Brc1cnc(Nc2ccc3c(c2)OCO3)nc1NC1CCC1 [Compound 19] | 1.87[b]
34 | CN(C)C(=O)c1ccc(Nc2ncc(Cl)c(NC3CCC3)n2)cc1 [Compound 240] | 1.6[b]
35 | Fc1cc(F)cc(Nc2ncc(Br)c(NC3CCC3)n2)c1 [compound 144] | 3.98[b]
36 | CC(=O)c1cc(Nc2ncc(Br)c(NC3CCC3)n2)ccc1O [Compound 177] | 2.09[b]
37 | Clc1cc(Cl)cc(Nc2ncc(Br)c(NC3CCC3)n2)c1 [Compound 76] | 4.98[b]
38 | CNc1cccc(Nc2ncc(Cl)c(NC3CCC3)n2)c1 [Compound 260] | 1.49[b]
39 | Cc1cccc(Nc2ncc(Br)c(NC3CCC3)n2)c1 [Compound 224] | 2.55[b]
40 | CCC(=O)Nc1cccc(Nc2ncc(Br)c(NC3CCC3)n2)c1 [Compound 97] | 1.71[b]
41 | N#Cc1cccc(Nc2ncc(Br)c(NC3CCC3)n2)c1 [Compound 64] | 2.67[b]
42 | CCOC(=O)c1cccc(Nc2ncc(Br)c(NC3CCC3)n2)c1 [Compound 77] | 2.77[b]
43 | NS(=O)(=O)c1cc(Nc2ncc(Br)c(NC3CCC3)n2)ccc1Cl [Compound 79] | 2.02[b]
44 | O=S1(=O)CCCN1c1cccc(Nc2ncc(Br)c(NC3CCC3)n2)c1 [Compound 258] | 2.25[b]
45 | N#Cc1cnc(Nc2ccccc2)nc1NC1CCC1 [compound 29] | 2.92[b]
46 | CN1C(=O)COc2ccc(Nc3ncc(Br)c(NC4CCC4)n3)cc21 [Compound 13] | 1.83[b]
47 | CNC(=O)Oc1cccc(Nc2ncc(Br)c(NC3CCC3)n2)c1 [Compound 196] | 1.75[b]
48 | CC(=O)c1cccc(Nc2ncc(Br)c(NC3CCC3)n2)c1 [Compound 32] | 2.28[b]
49 | CNC(=O)c1cccc(Nc2ncc(Br)c(NC3CCC3)n2)c1 [Compound 192] | 1.58[b]
50 | N#CCc1cccc(Nc2ncc(Cl)c(NC3CCC3)n2)c1 [Compound 242] | 1.97[b]
51 | Cc1cc(C)c(C)c(Nc2ncc(Br)c(NC3CCC3)n2)c1 [Compound 61] | 2.57[b]
52 | CN(C)S(=O)(=O)Oc1ccc(Nc2ncc(Br)c(NC3CCC3)n2)cc1 [Compound 160] | 2.46[b]
53 | O=C1COc2ccc(Nc3ncc(Br)c(NC4CCC4)n3)cc2N1 [Compound 6] | 1.61[b]

Other lines, results leading:

Row | log p | SMILES
54 | 1.59[b] | O=C1OCCN1c1ccc(Nc2ncc(Cl)c(NC3CCC3)n2)cc1 [compound 132]
55 | 1.33[b] | O=C1NC(=O)C(c2ccc(Nc3ncc(Cl)c(NC4CCC4)n3)cc2)N1 (centres unmarked) [compound 134]
56 | 1.99[b] | CC(C)(CF)C(=O)Nc1ccc(Nc2ncc(Br)c(NC3CCC3)n2)cc1 [Compound 171]
57 | 0.71[b] | Clc1cnc(Nc2ccc(NC3CC3)cc2)nc1NC1CCC1 [compound 207]
58 | 2.33[b] | Fc1ccc(Nc2ncc(Br)c(NC3CCC3)n2)cc1 [Compound 49]
59 | 1.92[b] | CC1(C(=O)Nc2cccc(Nc3ncc(Cl)c(NC4CCC4)n3)c2)CC1 [Compound 140]
60 | 2.46[b] | N#Cc1cccc(Nc2ncc(Cl)c(NC3CCC3)n2)c1 [compound 107]
61 | 2.09[b] | O=C(Nc1ccc(Nc2ncc(Cl)c(NC3CCC3)n2)cc1)C(F)(F)F [compound 121]
62 | 2.67[b] | CCc1cccc(Nc2ncc(Cl)c(NC3CCC3)n2)c1 [Compound 251]
63 | 1.62[b] | O=C1CCC(=O)N1c1ccc(Nc2ncc(Br)c(NC3CCC3)n2)cc1 [compound 34]
64 | 2[b] | CC1(C(=O)Nc2ccc(Nc3ncc(Br)c(NC4CCC4)n3)cc2)CC1 [compound 189]
65 | 1.7[b] | Brc1cnc(Nc2ccc3cc[nH]c3c2)nc1NC1CCC1 [Compound 2]
66 | 1.61[b] | COC(=O)Nc1ccc(Nc2ncc(Cl)c(NC3CCC3)n2)cc1 [Compound 135]
67 | 2.73[b] | CCc1cc(Nc2ncc(Cl)c(NC3CCC3)n2)ccc1C [Compound 222]
68 | 1.13[b] | COCCNCc1ccc(Nc2ncc(Br)c(NC3CCC3)n2)cc1 [Compound 176]
69 | 2.32[b] | CS(=O)(=O)c1ccc(Nc2ncc(Br)c(NC3CCC3)n2)cc1 [Compound 179]
70 | 1.78[b] | O=C(NC1CC1)c1cccc(Nc2ncc(Br)c(NC3CCC3)n2)c1 [Compound 180]
71 | 2.7[b] | CC(=O)N(c1ccc(Nc2ncc(Br)c(NC3CCC3)n2)cc1)C1CCCCC1 [compound 163]

Row | log p | SMILES
72 | 1.57[b] | CN(C)C(=O)c1cccc(Nc2ncc(Cl)c(NC3CCC3)n2)c1 [Compound 247]
73 | 1.55[b] | COc1cc(Nc2ncc(Cl)c(NC3CCC3)n2)ccc1NC(C)=O [Compound 108]
74 | 1.43[b] | CC(=O)Nc1ccc(Nc2ncc(Cl)c(NC3CCC3)n2)cc1 [Compound 117]
75 | 1.8[b] | COc1ccc(Nc2ncc(Br)c(NC3CCC3)n2)cc1 [Compound 208]
76 | 1.5[b] | CNC(=O)c1cccc(Nc2ncc(Cl)c(NC3CCC3)n2)c1 [compound 127]
77 | 1.75[b] | COc1ccc(Nc2ncc(Cl)c(NC3CCC3)n2)cc1 [Compound 110]
78 | 3.19[b] | CCC(=O)c1ccc(Nc2ncc(Br)c(NC3CCC3)n2)cc1 [Compound 172]
79 | 2.99[b] | Clc1ccc(Nc2ncc(Br)c(NC3CCC3)n2)cc1 [compound 69]
80 | 1.62[b] | COC(=O)Nc1ccc(Nc2ncc(Br)c(NC3CCC3)n2)cc1 [Compound 46]
81 | 1.54[b] | CNC(=O)c1ccc(Nc2ncc(Br)c(NC3CCC3)n2)cc1 [Compound 101]
82 | 1.94[b] | CCOC(=O)Nc1cccc(Nc2ncc(Cl)c(NC3CCC3)n2)c1 [Compound 137]
83 | 3.59[b] | FC(F)(F)Oc1cccc(Nc2ncc(Cl)c(NC3CCC3)n2)c1 [compound 112]
84 | 1.94[b] | CC(C)(C)C(=O)Nc1ccc(Nc2ncc(Cl)c(NC3CCC3)n2)cc1 [Compound 116]
85 | 1.72[b] | O=C1CCCN1c1ccc(Nc2ncc(Br)c(NC3CCC3)n2)cc1 [Compound 174]
86 | 1.88[b] | N#CCc1ccc(Nc2ncc(Cl)c(NC3CCC3)n2)cc1 [Compound 233]
87 | 1.85[b] | CCN(C)C(=O)c1ccc(Nc2ncc(Cl)c(NC3CCC3)n2)cc1 [Compound 246]
88 | 3.41[b] | FC(F)Sc1ccc(Nc2ncc(Br)c(NC3CCC3)n2)cc1 [Compound 202]
89 | 1.71[b] | CNS(=O)(=O)Cc1ccc(Nc2ncc(Br)c(NC3CCC3)n2)cc1 [Compound 86]
